Source: US9475806B2, “Complement factor B inhibitors and uses there of” (Novartis AG, priority 2013, dated 2016)
Where two headings read alike, the source gives them in different places.

Legend:
[1] = molecular target: T1, Recombinant human factor B (Homo sapiens (Human), UniProt P00751)
[2] = molecular target: T1, Recombinant human factor B; test: biochemical

T1 sequence (P00751 26-764): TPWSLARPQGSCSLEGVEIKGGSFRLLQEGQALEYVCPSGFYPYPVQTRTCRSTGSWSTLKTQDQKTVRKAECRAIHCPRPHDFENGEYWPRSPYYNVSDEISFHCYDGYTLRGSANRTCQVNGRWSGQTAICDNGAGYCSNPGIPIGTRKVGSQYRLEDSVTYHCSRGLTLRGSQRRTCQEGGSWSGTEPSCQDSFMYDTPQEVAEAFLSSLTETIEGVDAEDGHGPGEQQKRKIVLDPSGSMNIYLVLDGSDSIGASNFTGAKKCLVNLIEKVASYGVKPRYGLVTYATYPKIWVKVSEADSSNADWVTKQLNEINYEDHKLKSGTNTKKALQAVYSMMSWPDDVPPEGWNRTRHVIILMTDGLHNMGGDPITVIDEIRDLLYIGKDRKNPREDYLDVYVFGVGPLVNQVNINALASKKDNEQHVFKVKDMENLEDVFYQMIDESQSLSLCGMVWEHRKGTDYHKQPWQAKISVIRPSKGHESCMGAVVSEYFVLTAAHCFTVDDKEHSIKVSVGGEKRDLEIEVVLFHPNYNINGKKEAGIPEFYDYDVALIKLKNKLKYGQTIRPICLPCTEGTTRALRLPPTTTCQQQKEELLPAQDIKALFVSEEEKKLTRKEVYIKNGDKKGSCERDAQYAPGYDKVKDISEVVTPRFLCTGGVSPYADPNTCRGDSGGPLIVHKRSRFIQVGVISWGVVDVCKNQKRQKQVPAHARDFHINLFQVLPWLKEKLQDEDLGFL

IC50 [1] [nM] | SMILES | IC50 [2] [nM]
290 | COc1cc(C)c2[nH]ccc2c1C(N)(c1nc2cc(C#N)cnc2[nH]1)C(F)(F)F (stereo not drawn) [5-B b) (+)] | –
700 | COc1cc(C)c2[nH]ccc2c1C(O)c1nc2ncc(C#N)cc2[nH]1 (stereo not drawn) [6-C b) (+)] | –
– | COc1cc(C)c2[nH]ccc2c1C(C)(C)c1nc2cc(C#N)cnc2[nH]1 [Example 12-D, 2-(2-(5-Methoxy-7-methyl-1H-indol-4-yl)propan-2-yl)-3H-imidazo[4,5-b]pyridine-6-carbonitrile] | 40
3140 | CNC(C)(c1nc2cc(C#N)cnc2[nH]1)c1c(OC)cc(C)c2[nH]ccc12 (stereo not drawn) [11-B b) (+)] | –
– | Cc1cc(C2CC2)c(C(N)(c2nc3cc(C#N)cnc3[nH]2)C(F)(F)F)c2cc[nH]c12 (racemic) [Example 17-G, (±)-2-(1-Amino-1-(5-cyclopropyl-7-methyl-1H-indol-4-yl)-2,2,2-trifluoroethyl)-3H-imidazo[4,5-b]pyridine-6-carbonitrile] | 90
720 | COc1cc(C)c2[nH]ccc2c1C(C)(OC)c1nc2cc(C#N)cnc2[nH]1 (stereo not drawn) [8-B b) (+)] | –
– | CCc1cc(C)c2[nH]ccc2c1C(C)(NC)c1nc2cc(C#N)cnc2[nH]1 (racemic) [Example 15-D, (±)-2-(1-(5-Ethyl-7-methyl-1H-indol-4-yl)-1-(methylamino)ethyl)-3H-imidazo[4,5-b]pyridine-6-carbonitrile] | 540
1520 | CNC(c1nc2cc(C#N)cnc2[nH]1)(c1c(OC)cc(C)c2[nH]ccc12)C(F)(F)F (stereo not drawn) [9-D b) (+)] | –
– | Cc1cc(C2CC2)c(C(C)(O)c2nc3cc(C#N)cnc3[nH]2)c2cc[nH]c12 (racemic) [Example 17-C, (±)-2-(1-(5-Cyclopropyl-7-methyl-1H-indol-4-yl)-1-hydroxyethyl)-3H-imidazo[4,5-b]pyridine-6-carbonitrile] | 60
1380 | COc1cc(C)c2[nH]ccc2c1C(C)(N)c1nc2cc(C#N)cnc2[nH]1 (stereo not drawn) [10-B b) (+)] | –
2350 | CCc1cc(C)c2[nH]ccc2c1C(O)(c1nc2cc(C#N)cnc2[nH]1)C(F)(F)F (stereo not drawn) [14-I b) (+)] | –
50 | COc1cc(C)c2[nH]ccc2c1C(C)(O)c1nc2cc(C#N)cnc2[nH]1 (stereo not drawn) [7-D b) (+)] | –
– | Cc1cc(C2CC2)c(C(O)c2nc3cc(C#N)cnc3[nH]2)c2cc[nH]c12 (racemic) [Example 16-G, (±)-2-((5-Cyclopropyl-7-methyl-1H-indol-4-yl)(hydroxy)methyl)-3H-imidazo[4,5-b]pyridine-6-carbonitrile] | 460
